According to PubChem BioAssay AID743296 (The Scripps Research Institute Molecular Screening Center, 2014):
Calls of active or inactive are those of the source. The rule behind the calls is not given here.

Biological target: CCHFV viral ovarian tumor domain protease (vOTU, L protein)
Assay: CCHFV vOTU protease inhibitor potency, dose response, biochemical, fluorescence, Pep-AMC substrate (AID 743296)
Conditions: recombinant CCHFV vOTU

Structure (SMILES)	IC50
Nc1cc2c(cc1Br)[nH]c(=O)c1ccccc12	inactive
Cc1c(Cl)cnc(NC(=O)COC(=O)c2ccc([N+](=O)[O-])s2)c1Cl	inactive
CCC(CNc1cc(OC)cc2cccnc12)NC1CCCCC1 (configuration not stated)	5.86 µM
CC1CCCC(NC(=O)COC(=O)c2ccc([N+](=O)[O-])s2)C1C (configuration not stated)	9.29 µM
CC1(C)C=C2C(=NN(c3ccccc3)C(N)=C2C#N)CO1	1.54 µM
S=C(Nc1ccc(Cl)cc1)Nc1cccc2cnccc12	inactive
Cc1ccccc1-c1cc2c(nn1)-c1ccccc1C2=O	0.545 µM
Cc1ccc(N2C(=O)[C@@H]3[C@H](C2=O)C2c4ccccc4C=CN2[C@@H]3C(=O)c2ccco2)cc1 (some centres not stated)	6.53 µM
COc1ccc2noc3c2c1C(=O)c1ccccc1-3	8.11 µM
NS(=O)(=O)c1ccc(NC2=CC(=O)C(=O)c3ccccc32)cc1	4.22 µM
CC1COCC(C)N1C1=C(Cl)C(=O)c2ccccc2C1=O (configuration not stated)	7.43 µM
O=C1C=C(Nc2ccccc2)c2ccccc2C1=O	6.64 µM
O=C(COC(=O)c1ccc([N+](=O)[O-])s1)NCc1ccc(F)cc1	9.46 µM
O=C(c1ccco1)[C@@H]1[C@@H]2C(=O)N(c3ccc(Br)cc3)C(=O)[C@@H]2C2c3ccccc3C=CN21 (some centres not stated)	5.18 µM
CN(C1=C(NC(=O)c2ccccc2)C(=O)c2ccccc2C1=O)C1CCS(=O)(=O)C1 (configuration not stated)	2.67 µM
O=C(NC1=CC(=O)c2ccccc2C1=O)c1ccccc1	4.64 µM
CCOC(=O)c1c2c(n(Cc3ccccc3)c1C)C(=O)C(=O)c1ccccc1-2	2.12 µM
COc1cc(NCCCCCCN)c2ncccc2c1OC	inactive
Cc1ccc(NC2=CC(=O)C(=O)c3ccccc32)cc1	5.14 µM
CCOC(=O)N=Nc1c2ccccc2c2nc3no[nH]c3nc12	2.54 µM
Cc1cnc(C2OCCO2)c2cccc(N)c12	inactive
O=C(O)CSc1cc(NS(=O)(=O)c2cccc([N+](=O)[O-])c2)c2ccccc2c1O	1.95 µM
COc1ccccc1NC(=O)COC(=O)c1ccc([N+](=O)[O-])s1	7.82 µM
COc1cc(NC(=O)COC(=O)c2ccc([N+](=O)[O-])s2)cc(OC)c1OC	8.38 µM
O=C1Cc2ccccc2C(=O)N1	0.419 µM
COc1cc2c(cc1O)[C@@H]1Cc3ccc(OC)c(O)c3CN1CC2	inactive

Structure (SMILES)	IC50
O=C(O)CSc1cc(NS(=O)(=O)c2ccc(Cl)cc2)c2ccccc2c1O	3.4 µM
O=S(=O)(Nc1cc2nc3ccccc3nc2n1Cc1ccccc1)c1ccc(Cl)cc1	4.14 µM
O=C(NC1=C(NC2CCS(=O)(=O)C2)C(=O)c2ccccc2C1=O)c1ccccc1 (configuration not stated)	2.79 µM
O=C(O)CSc1cc(NS(=O)(=O)c2ccc(Br)cc2)c2ccccc2c1O	1.66 µM
COc1cc(C(=O)c2nccc3cc(OC)c(OC)cc23)c([N+](=O)[O-])cc1OC	1.42 µM
Cc1ccc2c(c1C)-c1c(ccc(C)c1C)C(=O)C2=O	7.46 µM
CC(C)=CCC1=C(OCC(=O)O)C(=O)c2ccccc2C1=O	3.23 µM
NS(=O)(=O)c1ccc(NC(=O)COC(=O)c2ccc([N+](=O)[O-])s2)cc1	8.1 µM
O=C(/C=C/c1ccc(O)cc1)c1ccc(NC2=C(N3CCCCC3)C(=O)c3ccccc3C2=O)cc1	4.19 µM
CCc1cc[n+](C2=C(NS(=O)(=O)c3cccs3)C(=O)c3ccccc3C2=O)cc1	3.5 µM
O=C1Cc2ccccc2C(=O)N1Cc1ccccc1	1.19 µM
O=C1OC(Nc2cc(Br)cc3cccnc23)c2ccccc21 (configuration not stated)	> 115 µM (inactive)
O=C(COC(=O)c1ccc([N+](=O)[O-])s1)Nc1ccccc1	8.21 µM
O=C1Cc2ccccc2C(=O)N1CCc1ccccc1	0.901 µM
O=C(COC(=O)c1ccc([N+](=O)[O-])s1)Nc1ccc(F)cc1	7.27 µM
O=C(COC(=O)c1ccc([N+](=O)[O-])s1)Nc1ncc(C(F)(F)F)cc1Cl	inactive
NC1=C(Cl)C(=O)c2ccc(S(N)(=O)=O)cc2C1=O	0.122 µM
COc1cc(Br)c(C(=O)c2nccc3cc(OC)c(OC)cc23)cc1OC	0.276 µM
O=C(OCc1nnc(-c2ccccc2)o1)c1ccc([N+](=O)[O-])s1	6.91 µM
CC(=O)c1ccc(NC(=S)Nc2cccc3cnccc23)cc1	> 115 µM (inactive)
COC(CNC(=O)c1ccc2c3c(onc13)-c1ccccc1C2=O)OC	7.11 µM
COC1=C(N)C(=O)c2nc(C)ccc2C1=O	0.824 µM
CCOC(=O)C1=C(COC(=O)c2ccc([N+](=O)[O-])s2)NC(=O)NC1C (configuration not stated)	7.97 µM
Cn1nc(-c2ccccn2)nc2c(=O)n(C)c(=O)nc1-2	0.251 µM
COc1cc(NCCCC(C)N)c2ncccc2c1 (configuration not stated)	> 115 µM (inactive)
O=S(=O)(Nc1cc(Sc2ncn[nH]2)c(O)c2ccccc12)c1ccccc1	0.458 µM
